Assay results reported in patent publication US10590123B2, “Pesticidally active amide heterocyclic derivatives with sulphur containing substituents” (SYNGENTA PARTICIPATIONS AG, priority 2014, dated 2020).

Assays:
Format in all cases: in vivo
[1] = test system: Plutella xylostella (Diamond Back Moth); assay: Example B3: Activity against Plutella xylostella, artificial diet; conditions: 120 h, application rate 200 ppm, L2 larvae, 5 days after infestation, read-out: effect in at least one of the two categories (mortality or growth inhibition)
Protocol: Example B3: Activity Against Plutella xylostella (Diamond Back Moth)
24-well microtiter plates with artificial diet were treated with aqueous test solutions prepared from 10′000 ppm DMSO stock solutions by pipetting. After drying, the plates were infested with L2 larvae (10 to 15 per well). The samples were assessed for mortality and growth inhibition in comparison to untreated samples 5 days after infestation.

[2] = test system: Myzus persicae (Green Peach Aphid); assay: Example B9: Activity against Myzus persicae, systemic via pea seedling roots; conditions: 144 h, test rate 24 ppm, pea seedling roots in test solution, 6 days
Protocol: Example B9: Activity Against Myzus persicae (Green Peach Aphid)
Roots of pea seedlings infested with an aphid population of mixed ages were placed directly in the aqueous test solutions prepared from 10′000 DMSO stock solutions. The samples were assessed for mortality 6 days after placing seedlings in test solutions.

[3] = test system: Myzus persicae (Green Peach Aphid); assay: Example B8: Activity against Myzus persicae, sprayed sunflower leaf discs; conditions: foliar, 144 h, application rate 200 ppm, aphid population of mixed ages, 6 days after infestation
Protocol: Example B8: Activity Against Myzus persicae (Green Peach Aphid)
Sunflower leaf discs were placed on agar in a 24-well microtiter plate and sprayed with aqueous test solutions prepared from 10′000 ppm DMSO stock solutions. After drying, the leaf discs were infested with an aphid population of mixed ages. The samples were assessed for mortality 6 days after infestation.

[4] = test system: Spodoptera littoralis (Egyptian Cotton Leaf Worm); assay: Example B2: Activity against Spodoptera littoralis, systemic via lettuce roots in agar; conditions: 144 h, application rate 12.5 ppm, 6 days after infestation, read-out: control in at least one of the three categories (mortality, anti-feedancy or growth inhibition)
Text: Example B2: Activity Against Spodoptera littoralis (Egyptian Cotton Leaf Worm)
Test compounds were applied by pipette from 10′000 ppm DMSO stock solutions into 24-well plates and mixed with agar. Lettuce seeds were placed on the agar and the multi well plate was closed by another plate which contains also agar. After 7 days the roots have absorbed the compound and the lettuce has grown into the lid plate. The lettuce leafs were now cut off into the lid plate. Spodoptera eggs were pipetted through a plastic stencil on a humid gel blotting paper and the plate closed with it.
The samples were assessed for mortality, anti-feedant effect and growth inhibition in comparison to untreated samples 6 days after infestation.

[5] = test system: Diabrotica Balteata (Corn Root Worm); assay: Example B4: Activity against Diabrotica balteata, sprayed maize sprouts; conditions: 96 h, application rate 200 ppm, L2 larvae, 4 days after infestation, read-out: effect in at least one of the two categories (mortality or growth inhibition)
Protocol: Example B4: Activity Against Diabrotica Balteata (Corn Root Worm)
Maize sprouts, placed on an agar layer in 24-well microtiter plates were treated with aqueous test solutions prepared from 10′000 ppm DMSO stock solutions by spraying. After drying, the plates were infested with L2 larvae (6 to 10 per well). The samples were assessed for mortality and growth inhibition in comparison to untreated samples 4 days after infestation.

[6] = test system: Spodoptera littoralis (Egyptian Cotton Leaf Worm); assay: Example B1: Activity against Spodoptera littoralis, sprayed cotton leaf discs; conditions: foliar, 72 h, application rate 200 ppm, L1 larvae, 3 days after infestation, read-out: control in at least one of the three categories (mortality, anti-feedancy or growth inhibition)
Outline: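 Cotton leaf discs on agar were sprayed with aqueous dilutions of 10′000 ppm DMSO stocks, dried, and infested with five L1 larvae. Mortality, anti-feedant effect and growth inhibition were scored 3 days after infestation against untreated discs. Control means at least one of these exceeds the untreated sample.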

[7] = test system: Thrips tabaci (Onion Thrips); assay: Example B11: Activity against Thrips tabaci, sprayed sunflower leaf discs; conditions: foliar, 144 h, application rate 200 ppm, thrips population of mixed ages, 6 days after infestation
Protocol: Example B11: Activity Against Thrips tabaci (Onion Thrips)
Sunflower leaf discs were placed on agar in 24-well microtiter plates and sprayed with aqueous test solutions prepared from 10′000 ppm DMSO stock solutions. After drying the leaf discs were infested with a thrips population of mixed ages. The samples were assessed for mortality 6 days after infestation.

[8] = test system: Euschistus heros (Neotropical Brown Stink Bug); assay: Example B7: Activity against Euschistus heros, sprayed soybean leaf; conditions: 120 h, application rate 200 ppm, N-2 nymphs, 5 days after infestation
Protocol: Example B7: Activity Against Euschistus heros (Neotropical Brown Stink Bug)
Soybean leaf on agar in 24-well microtiter plates were sprayed with aqueous test solutions prepared from 10′000 ppm DMSO stock solutions. After drying the leaf were infested with N-2 nymphs. The samples were assessed for mortality 5 days after infestation.

[9] = test system: Frankliniella occidentalis (Western Flower Thrips); assay: Example B5: Activity against Frankliniella occidentalis, sprayed sunflower leaf discs; conditions: foliar, 168 h, application rate 200 ppm, population of mixed ages, 7 days after infestation
Protocol: Example B5: Activity Against Frankliniella occidentalis (Western Flower Thrips)
Sunflower leaf discs were placed on agar in 24-well microtiter plates and sprayed with aqueous test solutions prepared from 10′000 ppm DMSO stock solutions. After drying the leaf discs were infested with a Frankliniella population of mixed ages. The samples were assessed for mortality 7 days after infestation.

[10] = test system: Tetranychus urticae (Two-Spotted Spider Mite); assay: Example B12: Activity against Tetranychus urticae, sprayed bean leaf discs; conditions: foliar, 192 h, application rate 200 ppm, mixed population (mobile stages), 8 days after infestation
Protocol: Example B12: Activity Against Tetranychus urticae (Two-Spotted Spider Mite)
Bean leaf discs on agar in 24-well microtiter plates were sprayed with aqueous test solutions prepared from 10′000 ppm DMSO stock solutions. After drying the leaf discs were infested with a mite population of mixed ages. The samples were assessed for mortality on mixed population (mobile stages) 8 days after infestation.

[11] = test system: Bemisia tabaci (Cotton White Fly); assay: Example B6: Activity against Bemisia tabaci, sprayed cotton leaf discs; conditions: foliar, 144 h, application rate 200 ppm, adult white flies, 6 days after incubation
Protocol: Example B6: Activity Against Bemisia tabaci (Cotton White Fly)
Cotton leaf discs were placed on agar in 24-well microtiter plates and sprayed with aqueous test solutions prepared from 10′000 ppm DMSO stock solutions. After drying the leaf discs were infested with adult white flies. The samples were checked for mortality 6 days after incubation.

CCS(=O)(=O)c1cc(-c2cncnc2)cnc1C(=O)N(C)c1nnc(C(F)(F)F)s1 [Compound P58]
≥ 80%: percent effect (mortality or growth inhibition) at 200 ppm [1] | mortality at 24 ppm [2] | mortality at 200 ppm [3]

CCS(=O)(=O)c1cc(-c2ccccc2)cnc1C(=O)N(C)c1nnc(C(F)(F)F)s1 [Compound P5, 3-ethylsulfonyl-N-methyl-5-phenyl-N-[5-(trifluoromethyl)-1,3,4-thiadiazol-2-yl]pyridine-2-carboxamide]
≥ 80%: percent control (mortality, anti-feedant effect or growth inhibition) at 12.5 ppm [4] | percent effect (mortality or growth inhibition) at 200 ppm [1] | percent effect (mortality or growth inhibition) at 200 ppm [5] | mortality at 200 ppm [3] | percent control (mortality, anti-feedant effect or growth inhibition) at 200 ppm [6] | mortality at 200 ppm [7] | mortality at 200 ppm [8] | mortality at 200 ppm [9]

CCS(=O)(=O)c1cc(-c2cccc(Cl)n2)cnc1C(=O)N(C)c1nnc(C(F)(F)F)s1 [Compound P49]
≥ 80%: percent effect (mortality or growth inhibition) at 200 ppm [1] | percent effect (mortality or growth inhibition) at 200 ppm [5] | percent control (mortality, anti-feedant effect or growth inhibition) at 200 ppm [6] | mortality at 200 ppm [10] | mortality at 200 ppm [8]

CCS(=O)(=O)c1cc(-c2cc(C#N)ccn2)cnc1C(=O)N(C)c1nnc(C(F)(F)F)s1 [Compound P61]
≥ 80%: percent control (mortality, anti-feedant effect or growth inhibition) at 12.5 ppm [4] | percent effect (mortality or growth inhibition) at 200 ppm [1] | percent effect (mortality or growth inhibition) at 200 ppm [5] | mortality at 200 ppm [3] | percent control (mortality, anti-feedant effect or growth inhibition) at 200 ppm [6] | mortality at 200 ppm [10] | mortality at 200 ppm [8] | mortality at 200 ppm [11]

CCS(=O)(=O)c1cc(-c2cc(F)ccc2F)cnc1C(=O)N(C)c1nnc(C(F)(F)F)s1 [Compound P33]
≥ 80%: percent control (mortality, anti-feedant effect or growth inhibition) at 12.5 ppm [4] | percent effect (mortality or growth inhibition) at 200 ppm [1] | percent effect (mortality or growth inhibition) at 200 ppm [5] | mortality at 200 ppm [3] | percent control (mortality, anti-feedant effect or growth inhibition) at 200 ppm [6] | mortality at 200 ppm [10] | mortality at 200 ppm [8] | mortality at 200 ppm [11]

CCS(=O)(=O)c1cc(-c2ccc(Cl)c(Cl)c2)cnc1C(=O)N(C)c1nnc(C(F)(F)F)s1 [Compound P36]
≥ 80%: percent effect (mortality or growth inhibition) at 200 ppm [1] | percent effect (mortality or growth inhibition) at 200 ppm [5] | percent control (mortality, anti-feedant effect or growth inhibition) at 200 ppm [6] | mortality at 200 ppm [10] | mortality at 200 ppm [8]

CCS(=O)(=O)c1cc(C2(C#N)CC2)cnc1C(=O)N(C)c1nnc(C(F)(F)C(F)(F)F)s1 [Compound P20, 5-(1-cyanocyclopropyl)-3-ethylsulfonyl-N-methyl-N-[5-(1,1,2,2,2-pentafluoroethyl)-1,3,4-thiadiazol-2-yl]pyridine-2-carboxamide]
≥ 80%: percent control (mortality, anti-feedant effect or growth inhibition) at 12.5 ppm [4] | percent effect (mortality or growth inhibition) at 200 ppm [1] | percent effect (mortality or growth inhibition) at 200 ppm [5] | mortality at 200 ppm [3] | percent control (mortality, anti-feedant effect or growth inhibition) at 200 ppm [6] | mortality at 200 ppm [7] | mortality at 200 ppm [8] | mortality at 200 ppm [11] | mortality at 200 ppm [9]
